This assay has as its target T1, CETP (Homo sapiens, UniProt P11597).
T1 sequence (P11597 18-493): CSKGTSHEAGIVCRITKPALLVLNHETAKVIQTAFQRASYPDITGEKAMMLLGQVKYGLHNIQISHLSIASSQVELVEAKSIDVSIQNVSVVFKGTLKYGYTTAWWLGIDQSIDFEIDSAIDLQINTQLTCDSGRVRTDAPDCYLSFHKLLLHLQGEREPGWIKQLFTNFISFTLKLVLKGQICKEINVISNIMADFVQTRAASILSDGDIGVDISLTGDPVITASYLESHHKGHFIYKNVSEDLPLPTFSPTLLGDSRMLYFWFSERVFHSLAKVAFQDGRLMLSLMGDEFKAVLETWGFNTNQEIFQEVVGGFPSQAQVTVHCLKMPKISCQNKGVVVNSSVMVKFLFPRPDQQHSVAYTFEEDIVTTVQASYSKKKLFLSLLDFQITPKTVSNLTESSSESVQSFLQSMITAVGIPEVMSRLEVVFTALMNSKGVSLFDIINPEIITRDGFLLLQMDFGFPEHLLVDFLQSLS
The assay can be described thus: Assay of CETP Inhibition using Purified Components (Reconstituted Buffer Assay). In kind it is biochemical. Set-up: made in house; host or cells: CHO cells (serum-free conditioned medium). Conditions: transfer of [3H]CE from HDL to LDL. On the procedure:
Assay of CETP Inhibition using Purified Components (Reconstituted Buffer Assay)
The ability of compounds to inhibit CETP activity was assessed using an in vitro assay that measured the rate of transfer of radiolabeled cholesteryl ester ([^3H]CE) from HDL donor particles to LDL acceptor particles. Details of the assay are provided by Glenn, K. C. et al. (Glenn and Melton, “Quantification of Cholesteryl Ester Transfer Protein (CETP): A) CETP Activity and B) Immunochemical Assay of CETP Protein,” Meth. Enzymol., 263, 339-351 (1996)). Human recombinant CETP can be obtained from the serum-free conditioned medium of CHO cells transfected with a cDNA for CETP and purified as described by Wang, S. et al. (J. Biol. Chem. 267, 17487-17490 (1992)). To measure CETP activity, [^3H]CE-labeled-HDL, LDL, CETP and assay buffer (50 mM tris(hydroxymethyl)aminomethane, pH 7.4; 150 mM sodium chloride; 2 mM ethylenediamine-tetraacetic acid (EDTA); 1% bovine serum albumin) were incubated in a final volume of 200 μL, for 2 hours at 37° C. in 96 well plates. […] The inhibitors were then diluted 1:1 with CETP in assay buffer, and then 25 μL of that solution was mixed with 175 μL of lipoprotein pool for assay. Following incubation, LDL was differentially precipitated by the addition of 50 μL of 1% (w/v) dextran sulfate/0.5 M magnesium chloride, mixed by vortex, and incubated at room temperature for 10 minutes. A potion of the solution (200 μL) was transferred to a filter plate (Millipore). After filtration, the radioactivity present in the precipitated LDL was measured by liquid scintillation counting.
This value was defined as the IC50.
Examples of IC50 values determined by these methods are specified in Table 9.

The mark [1] stands for this setting: Inhibition of CETP activity in reconstituted buffer assay, read-out: IC50.
The mark [2] stands for this setting: IC50, Inhibition of CETP activity in reconstituted buffer assay.

For 47 compounds, IC50 results are on record in patent US6723753B2, “Substituted n-benzyl-n-phenyl aminoalcohol compounds useful for inhibiting cholesteryl ester transfer protein activity” (Pharmacia Corporation, priority 2002, dated 2004).

Usually IC50 stands for the concentration that gives 50% inhibition.

Where two headings read alike, the source gives them in different places.

For the compound `OC(CN(Cc1cccc(OC(F)(F)C(F)F)c1)c1cccc(Oc2cncnc2)c1)C(F)(F)F` (centres unmarked) [Example 449], the IC50 under setting [1] came out at 3.9 µM.
Same read-out and setting: the value for `CS(=O)(=O)c1ccc(CN(CC(O)C(F)(F)F)c2cccc(Oc3ccccc3)c2)cc1` (centres unmarked) [Example 156] was 40 µM; that for `FC(CN(Cc1cccc(OC(F)(F)C(F)F)c1)c1cccc(Oc2ccccc2)c1)C(F)(F)F` (centres unmarked) [Example 1669, N-(3-phenoxyphenyl)-N-(3,3,3,2-tetrafluoropropyl)-3-(1,1,2,2-tetrafluoroethoxy)benzenemethanamine] was 17 µM; that for `OC(CN(Cc1cccc(C(F)(F)F)c1)c1ccc(-c2ccccc2)cc1)C(F)(F)F` (centres unmarked) [Example 689] was 5 µM.
On the same count and under the same terms, the value for `O=C(Nc1ccc(-c2ccccc2)cc1)N(CC(O)C(F)(F)F)c1cccc(OC(F)(F)F)c1` (centres unmarked) [Example 369] was above 100 µM.
`OC(CN(Cc1cccc(OC(F)(F)C(F)F)c1)c1cccc(Oc2cccnc2)c1)C(F)(F)F` (centres unmarked) [Example 286] had an IC50 under setting [2] of 1.3 µM.
Regarding `OC(CN(Cc1ccccc1)c1ccc(Cl)cc1)C(F)(F)F` (centres unmarked) [Example 7], under setting [1], the IC50 was above 100 µM.
The same measure, in the same setting: the value for `OC(CN(Cc1ccc(F)cc1)Cc1ccccc1C(F)(F)F)C(F)(F)F` (centres unmarked) [compound 189] was above 100 µM; that for `CSc1ccc(-c2cccc(N(Cc3cccc(OC(F)(F)C(F)F)c3)CC(O)C(F)(F)F)c2)cc1` (centres unmarked) [Example 553] was 4.8 µM; that for `OC(CN(Cc1cccc(Oc2ccccc2)c1)c1ccc(Oc2ccccc2)cc1)C(F)(F)F` (centres unmarked) [Example 151] was above 100 µM.
The same measure, in the same setting: the value for `OC(CN(Cc1cc(OCc2ccccc2)cc(OCc2ccccc2)c1)c1cccc(OC(F)(F)F)c1)C(F)(F)F` (centres unmarked) [Example 107] was 75 µM.
Take `COc1ccc(N(Cc2cccc(C)c2)CC(O)C(F)(F)F)cc1` (centres unmarked) [Example 28]: under setting [1], the IC50 worked out at 75 µM.
On the same count and under the same terms, the value for `CCCC(Oc1cccc(N(Cc2cccc(OC(F)(F)C(F)F)c2)CC(O)C(F)(F)F)c1)C(=O)OCC` (centres unmarked) [Example 508] was 2.1 µM; that for `OC(CN(Cc1ccc(-c2ccccc2)cc1)Cc1cccc(OC(F)(F)F)c1)C(F)(F)F` (centres unmarked) [compound 196] was 40 µM; that for `Oc1cc(CN(CC(O)C(F)(F)F)c2cccc(OC(F)(F)F)c2)cc(O)c1O` (centres unmarked) [Example 359] was above 100 µM.
Take `CC(=O)Oc1ccc(CN(CC(O)C(F)(F)F)c2cccc(OC(F)(F)F)c2)cc1OC(C)=O` (centres unmarked) [Example 118]: the IC50 under setting [1] stood at 45 µM.
The same measure, in the same setting: the value for `OC(CN(Cc1cccc(C(F)(F)F)c1)c1ccc(Br)c(C(F)(F)F)c1)C(F)(F)F` (centres unmarked) [Example 625, 3-[4-bromo-3-(trifluoromethyl)phenyl[[3-(trifluoromethyl)-phenyl]methyl]amino]-1,1,1-trifluoro-2-propanol] was 8.3 µM; that for `O=C(O)c1cccc(CN(CC(O)C(F)(F)F)c2cccc(OC(F)(F)F)c2)c1` (centres unmarked) [Example 356] was above 100 µM.
Same read-out and setting: the value for `OC(CN(Cc1cccc(OC(F)(F)C(F)F)c1)c1cccc(Oc2ccc(F)c(F)c2F)c1)C(F)(F)F` (centres unmarked) [Example 237] was 0.35 µM; that for `OC(CN(Cc1ccc(OC(F)(F)F)cc1)c1ccc(F)c(F)c1)C(F)(F)F` (centres unmarked) [Example 56] was 20 µM.
The same measure, in the same setting: the value for `Cc1cc(-c2cccc(N(Cc3cccc(OC(F)(F)C(F)F)c3)CC(O)C(F)(F)F)c2)ccc1F` (centres unmarked) [Example 569] was 1.2 µM; that for `OC(CN(Cc1cccc(OC(F)(F)C(F)F)c1)c1cccc(Oc2cc(F)cc(F)c2F)c1)C(F)(F)F` (centres unmarked) [Example 225] was 0.37 µM.
Take `COc1cc(N(Cc2cccc(OC(F)(F)F)c2)CC(O)C(F)(F)F)cc(OC)c1OC` (centres unmarked) [Example 160]: the IC50 under setting [1] was 20 µM.
With `CCOC(=O)c1ccc(Nc2cccc(N(Cc3cccc(OC(F)(F)C(F)F)c3)CC(O)C(F)(F)F)c2)cc1` (centres unmarked) [Example 298], under setting [1], the IC50 was 24 µM.
The same measure, in the same setting: to `CC(C)(C)c1ccc(Oc2cccc(N(Cc3cccc(OC(F)(F)C(F)F)c3)CC(O)C(F)(F)F)c2)cc1` (centres unmarked) [Example 437] belongs 2.2 µM.
In the case of `O=S(=O)(c1cccc(N(Cc2cccc(OC(F)(F)C(F)F)c2)CC(O)C(F)(F)F)c1)C1CCNCC1` (centres unmarked) [Example 484], the IC50 under setting [1] was above 50 µM.
On to `OC(CN(Cc1cccc(OC(F)(F)C(F)F)c1)c1cccc(OCc2cccc(F)c2)c1)C(F)(F)F` (centres unmarked) [Example 406], for which the IC50 under setting [1] was determined as 1.4 µM.
Turning to `CCCCNC(=O)c1cccc(N(Cc2cccc(OC(F)(F)C(F)F)c2)CC(O)C(F)(F)F)c1` (centres unmarked) [Example 458], the IC50 under setting [1] was determined as 13 µM.
On the same count and under the same terms, the value for `Cc1cc(Cc2cccc(N(Cc3cccc(OC(F)(F)C(F)F)c3)CC(O)C(F)(F)F)c2)ccc1F` (centres unmarked) [Example 521] was 0.43 µM; that for `OC(CN(Cc1ccc(Cl)cc1)Cc1ccc(C(F)(F)F)cc1)C(F)(F)F` (centres unmarked) [compound 173] was 20 µM; that for `COc1ccc(N(CCCC(F)(F)F)c2cccc(N(Cc3cccc(OC(F)(F)C(F)F)c3)CC(O)C(F)(F)F)c2)cc1` (centres unmarked) [Example 320] was 32 µM.
Same read-out and setting: the value for `O=C(NCc1cccc(OC(F)(F)F)c1)c1cccc(N(Cc2cccc(OC(F)(F)C(F)F)c2)CC(O)C(F)(F)F)c1` (centres unmarked) [Example 466] was 12 µM; that for `OC(CN(Cc1cccc(OC(F)(F)F)c1)c1ccc(OC(F)(F)F)cc1)C(F)(F)F` (centres unmarked) [Example 134] was 6 µM; that for `OC(CN(Cc1cccc(C(F)(F)F)c1)c1cccc(F)c1)C(F)(F)F` (centres unmarked) [Example 1, 3-[(3-fluorophenyl)[[3-(3-trifluoromethyl)phenyl]methyl]amino]-1,1,1-tri-fluoro-2-propanol] was 38 µM.
In the case of `OC(CN(Cc1nccn1Cc1ccccc1)c1cccc(OC(F)(F)F)c1)C(F)(F)F` (centres unmarked) [Example 365], under setting [1], the IC50 is above 100 µM.
The same measure, in the same setting: to `O=[N+]([O-])c1ccc(CN(CC(O)C(F)(F)F)c2cccc(OC(F)(F)F)c2)cc1` (centres unmarked) [Example 331] belongs above 100 µM; to `COc1ccc(Sc2cccc(N(Cc3cccc(OC(F)(F)C(F)F)c3)CC(O)C(F)(F)F)c2)cc1` (centres unmarked) [compound 291], 8.4 µM.
Still for that read-out and setting: to `O=C(Nc1cccc(N(Cc2cccc(OC(F)(F)C(F)F)c2)CC(O)C(F)(F)F)c1)c1ccccc1` (centres unmarked) [Example 536] belongs above 50 µM; to `NC(=O)COc1cccc(N(Cc2cccc(OC(F)(F)C(F)F)c2)CC(O)C(F)(F)F)c1` (centres unmarked) [Example 500], above 50 µM.
With `Cc1ccc(CN(CC(O)C(F)(F)F)c2cc(F)cc(F)c2)cc1` (centres unmarked) [Example 29], under setting [1], the IC50 is above 100 µM.
In the case of `Cc1cccnc1-c1cccc(CN(CC(O)C(F)(F)F)c2cccc(Oc3ccccc3)c2)c1` (centres unmarked) [Example 589], it took 15 µM to reach half-maximal inhibition under setting [2] (IC50).
As for `COc1cccc(COc2cccc(N(Cc3cccc(OC(F)(F)C(F)F)c3)CC(O)C(F)(F)F)c2)c1` (centres unmarked) [Example 407], under setting [1], the IC50 was found to be 1.5 µM.
Same read-out and setting: the value for `OC(CN(Cc1cccc(OC(F)(F)C(F)F)c1)c1cccc(-c2cc(C(F)(F)F)cc(C(F)(F)F)c2)c1)C(F)(F)F` (centres unmarked) [Example 551] was 10 µM.
`OC(CN(Cc1cccc(OC(F)(F)C(F)F)c1)c1ccc2c(c1)oc1ccccc12)C(F)(F)F` (centres unmarked) [Example 207]: under setting [1], the IC50 was found to be 90 µM.
With `OC(CN(Cc1cccc(OC(F)(F)C(F)F)c1)c1cccc(Oc2ccccc2F)c1)C(F)(F)F` (centres unmarked) [Example 223], the IC50 under setting [1] is 0.29 µM.
The same measure, in the same setting: to `OC(CN(CCCCOc1ccccc1)c1cccc(OC(F)(F)F)c1)C(F)(F)F` (centres unmarked) [Example 336] belongs above 100 µM.
On the same count and under the same terms, to `O=C(c1cccc(N(Cc2cccc(OC(F)(F)C(F)F)c2)CC(O)C(F)(F)F)c1)C1CCCC1` (centres unmarked) [Example 581] belongs 0.87 µM.
